Results on four compounds are retold here after patent publication US7199129B2, “Derivatives of morphine-like opioid compounds” (Monash University, priority 2001, dated 2007).

Series [1] concerns ICR mice. Briefly: Phenylquinone-induced writhing model in mice (Example 16). The note with it: IP, 3 mg/kg, Table 1. Format: in vivo. How it is done:
(§1) KRS-5-150 was evaluated for possible analgesic activity in the phenylquinone-induced writhing model in mice (Siegmund et al, 1957). A serial 2-fold dosage variance was used in the test, from 128 mg/kg to 1 mg/kg (8 doses in total). Groups of 3 male or female ICR mice weighing 22±2 g were employed. A serial 2-fold dosage variance was used in the test (8 doses in total). Variant doses (1, 2, 4, 8, 16, 32, 64 and 128 mg/kg) of test substances were administered intraperitoneally (IP). A vehicle of 2% Tween 80 in 0.9% NaCl was used for the intraperitoneal injection. The control group received vehicle alone. […] A reduction in the number of writhes by 50 percent or more (≧50%) relative to the vehicle-treated group indicated possible analgesic activity.

In series [2] the test system is ICR mice. As to the kind of experiment: Radiant heat-induced tail-flick response assay in mice. It is filed as in vivo. The note with it: IP, 10 mg/kg. How it is done:
For the tail-flick assay, groups of four male or female ICR mice weighing 22±2 g were used, and the test compound dissolved in 2% Tween 80/0.9% NaCl was administered intraperitoneally. The compound was administered intraperitoneally at 4, 8, 16 or 32 mg/kg, using 2% Tween 80—0.9% NaCl as the vehicle. Controls received vehicle alone. Morphine-HCl at a dose of 10 mg/kg was used as a positive control. At the pre-treatment point (0 minutes) a focused beam of radiant heat was applied to the middle dorsal surface of the tail to elicit a tail-flick response. […] The time required to elicit a pain response was recorded for each animal at 30 minutes following administration of the test compound. A prolongation of 50% or more ≧50% of the time required to elicit tail-flick response indicated possible analgesic activity.

Series [3] concerns ICR mice. Briefly: Phenylquinone-induced writhing assay in mice (Example 18). The following applies: IP; for Number of Writhings Individual: individual mice. Format: in vivo. How it is done:
Testing on compounds KRS-6-26 and JFY-058 was also carried out under contract by MDS Services—Taiwan Ltd. The study was designed to evaluate the effects of the compounds as analgesics in the phenylquinone-induced writhing assay described in detail in Example 13(Siegmund et al, 1957).
as §1, with “In each case, a” for “KRS-5-150 was evaluated for possible analgesic activity in the phenylquinone-induced writhing model in mice (Siegmund et al, 1957). A”

Series [4] has as its system ICR mice. As to the kind of experiment: Straub tail behaviour (indicator of CNS activity) and observed signs in test animals. From the text: The Straub test is an indicator of CNS activity.
The tail-flick test is thought to involve central nervous system activity, and therefore provides further confirmation of the Straub tail test.

The target in a further series is T1, human δ-opiate receptor (Homo sapiens, UniProt P41143).
T1 construct: purchased MDS Pharma Services 260110
As to the kind of experiment: In vitro opiate receptor radioligand binding assay, δ. The following applies: test compound 10 μM; read-out: Percentage inhibition of radioligand binding, δ-opiate receptor. How it is done: (§2) To characterise the target specificity of the compounds, KRS-5-150 and KRS-6-26 were tested at a concentration of 10 μM for their ability to inhibit the binding of a radioligand to human δ-, κ-, or μ-opiate receptors in vitro using commercially available assays (MDS Pharma Services; assay catalogue numbers 260110, 260210 and 260410 respectively).
(§3) Percentage inhibition of radioligand binding to human opioid receptors in vitro by test compounds (10 μM)

The next series has as its target T2, human κ-opiate receptor (Homo sapiens, UniProt P41145).
T2 construct: purchased MDS Pharma Services 260210
Briefly: In vitro opiate receptor radioligand binding assay, κ. The note with it: test compound 10 μM; read-out: Percentage inhibition of radioligand binding, κ-opiate receptor. The procedure:
as §2, §3

Another series addresses T3, human μ-opiate receptor (Homo sapiens, UniProt P35372).
T3 construct: purchased MDS Pharma Services 260410
As to the kind of experiment: In vitro opiate receptor radioligand binding assay, μ. The note with it: test compound 10 μM; read-out: Percentage inhibition of radioligand binding, μ-opiate receptor. How it is done: as §2, §3

“And” between values parts separate entries of the source, which are not always exact repeats. Equal entries are not always repeated. Structures can show the parent of a compound that is named as a salt.

T3 sequence (P35372 whole entry): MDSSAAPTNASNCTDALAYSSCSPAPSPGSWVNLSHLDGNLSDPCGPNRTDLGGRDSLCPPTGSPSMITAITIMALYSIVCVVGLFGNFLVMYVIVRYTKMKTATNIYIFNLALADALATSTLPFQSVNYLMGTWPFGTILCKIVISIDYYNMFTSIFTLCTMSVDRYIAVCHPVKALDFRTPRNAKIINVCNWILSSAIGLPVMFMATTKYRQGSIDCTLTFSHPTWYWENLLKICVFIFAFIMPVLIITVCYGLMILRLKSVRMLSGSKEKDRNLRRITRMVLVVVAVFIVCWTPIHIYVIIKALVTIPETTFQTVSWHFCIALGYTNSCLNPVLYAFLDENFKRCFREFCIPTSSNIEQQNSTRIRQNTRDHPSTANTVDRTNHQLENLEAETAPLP
T1 sequence (P41143 whole entry): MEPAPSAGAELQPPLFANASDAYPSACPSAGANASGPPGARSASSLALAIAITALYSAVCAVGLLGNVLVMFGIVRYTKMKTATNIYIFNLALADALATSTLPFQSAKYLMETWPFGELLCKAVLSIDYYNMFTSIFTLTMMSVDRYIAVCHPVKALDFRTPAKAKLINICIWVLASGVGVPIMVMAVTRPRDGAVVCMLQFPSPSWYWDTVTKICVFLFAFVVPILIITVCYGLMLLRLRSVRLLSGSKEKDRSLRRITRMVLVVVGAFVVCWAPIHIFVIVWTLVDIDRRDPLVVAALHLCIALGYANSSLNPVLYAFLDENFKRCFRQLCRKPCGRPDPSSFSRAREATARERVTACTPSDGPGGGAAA
T2 sequence (P41145 whole entry): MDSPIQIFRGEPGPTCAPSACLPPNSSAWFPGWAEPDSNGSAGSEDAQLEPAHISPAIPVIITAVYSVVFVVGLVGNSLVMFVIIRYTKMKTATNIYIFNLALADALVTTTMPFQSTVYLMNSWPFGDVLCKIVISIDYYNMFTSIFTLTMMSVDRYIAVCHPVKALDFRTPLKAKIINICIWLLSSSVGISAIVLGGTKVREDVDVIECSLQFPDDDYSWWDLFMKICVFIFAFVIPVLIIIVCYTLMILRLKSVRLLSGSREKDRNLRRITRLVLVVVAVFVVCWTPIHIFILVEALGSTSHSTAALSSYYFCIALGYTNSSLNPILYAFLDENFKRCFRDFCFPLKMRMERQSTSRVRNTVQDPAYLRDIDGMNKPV

A word on the % Inhibition: it is the share of the control response that was lost under treatment. The low end stands for a response near the control, the high end for a response far below the control. Regarding `CN1CC[C@]23c4c5ccc(O)c4O[C@H]2[C@@H](O)C=C[C@H]3[C@H]1C5` [Morphine.HCl, reference compound], the “% Inhibition” value is listed as 100% with ICR mice [1]; 100% in the series on ICR mice [3] (3 mg/kg, Table 4); 100% in the series with ICR mice [3] (3 mg/kg, Table 5). Moreover, the “No. of Writhings Individual” value in the series on ICR mice [1] (individual mice) was 0. In the series on ICR mice [2] (30 minutes), the “% Inhibition (prolongation of tail-flick response time)” value is “(100) %”. For the same compound, the “Response Time (Seconds) 30 Mins., Average” value in the series with ICR mice [2] (30 minutes after administration) stood at 13.6 s. Besides, the “Response Time (Seconds) 30 Mins.” value in the series with ICR mice [2] (individual mice, 30 minutes after administration, cut-off 15 seconds) was >15.0 Seconds (3×) and 9.4 Seconds. In addition, in the series on ICR mice [2] (individual mice, pre-treatment (0 minutes)), the “Response Time (Seconds) 0 Time” value is 6.3 Seconds (2×) and 6.2 Seconds and 6.5 Seconds. Moreover, the “Response Time (Seconds) 0 Time, Average” value in the series on ICR mice [2] (pre-treatment (0 minutes)) was determined as 6.3 s. Moreover, the “Number of Writhings Average” value in the series on ICR mice [3] (3 mg/kg, Table 4) was 0; with ICR mice [3] (3 mg/kg, Table 5) it was 0. For the same compound, the “Number of Writhings Individual” value is 1 and 0 (2×) in the series on ICR mice [3] (3 mg/kg, Table 4); 0 in the series with ICR mice [3] (3 mg/kg, Table 5). For the same compound, in the series with ICR mice [4] (3 mg/kg, Example 16), the “test animals exhibiting the Straub tail phenomenon” value is on record as 1 of 3. The “test animals with slight Straub tail phenomenon” value with ICR mice [4] (3 mg/kg, Example 18) is 2 of 3.

A word on the inhibition: it is the drop in the measured response relative to a control, in per cent. In the case of `Cc1ccc(N=C(NCCCN2CC[C@]34c5c6ccc(O)c5O[C@H]3[C@@H](O)C=CC4[C@H]2C6)Nc2ccc(C)cc2)cc1` (stereo partly drawn) [KRS-6-26, (5α,6α)-7,8-didehydro-4,5-epoxy-17-(N,N′-bis-p-tolylcarboxamidino-3-aminopropyl)morphinan-3,6-diol], the “% Inhibition” value was 50% with ICR mice [3] (1 mg/kg, Table 4); 50% with ICR mice [3] (2 mg/kg, Table 4); 75% in the series on ICR mice [3] (4 mg/kg, Table 4); 92% in the series on ICR mice [3] (8 mg/kg, Table 4); 100% with ICR mice [3] (16 mg/kg, Table 4); 100% in the series with ICR mice [3] (32 mg/kg, Table 4). In addition, the “% Inhibition” value with ICR mice [3] (64 mg/kg, Table 4) came to 100%; in the series on ICR mice [3] (128 mg/kg, Table 4) it was 100%. In addition, the “Number of Writhings Average” value in the series with ICR mice [3] (1 mg/kg, Table 4) was found to be 6; in the series on ICR mice [3] (2 mg/kg, Table 4), 6; with ICR mice [3] (4 mg/kg, Table 4), 3; in the series on ICR mice [3] (8 mg/kg, Table 4), 1; in the series on ICR mice [3] (16 mg/kg, Table 4), 0; in the series on ICR mice [3] (32 mg/kg, Table 4) it was 0. The “Number of Writhings Average” value is reported as 0 in the series on ICR mice [3] (64 mg/kg, Table 4) and 0 with ICR mice [3] (128 mg/kg, Table 4). In addition, the “Number of Writhings Individual” value in the series with ICR mice [3] (1 mg/kg, Table 4) was 0 and 13 and 4; in the series with ICR mice [3] (2 mg/kg, Table 4), 13 and 2 and 4; in the series on ICR mice [3] (4 mg/kg, Table 4), 0 and 7 and 2; in the series on ICR mice [3] (8 mg/kg, Table 4) it was 1 and 0 and 2; in the series with ICR mice [3] (16 mg/kg, Table 4), 0; with ICR mice [3] (32 mg/kg, Table 4), 0 (2×) and 1. For the same compound, the “Number of Writhings Individual” value with ICR mice [3] (64 mg/kg, Table 4) is on record as 0; in the series on ICR mice [3] (128 mg/kg, Table 4), 0. In the series on ICR mice [3] (doses higher than 8 mg/kg), this compound yielded an inhibition in writhing of 100%. In the series on ICR mice [3] (up to 128 mg/kg), the deaths result is reported as “no deaths”. The figures for the inhibition at 10 µM on human δ-opiate receptor, on human κ-opiate receptor and on human μ-opiate receptor were 95%, 94% and 99%, respectively. Further, the “test animals exhibiting slight Straub tail behaviour” value in the series with ICR mice [4] (IP, 16 mg/kg, Example 18) is listed as “one”. Besides, the “test animals exhibiting slight Straub tail behaviour and piloerection” value with ICR mice [4] (IP, 128, 64 and 32 mg/kg, Example 18) was 2 of 3.

Regarding “(5α,6α)-7,8-didehydro-4,5-epoxy-17-(N,N′-bis-p-tolylcarboxamidino-3-aminopropyl)morphinan-3,6-diol [KRS-6-26]”, the “analgesic activity (≧50% reduction in writhes)” value in the series with ICR mice [3] (doses of 128, 64, 32, 16, 8, 4, 2 and 1 mg/kg) is on record as “significant activity”.

For the compound `Oc1ccc2c3c1OC1C(O)C=CC4C(C2)N(/C(=N/c2ccccc2)Nc2ccccc2)CCC341` (stereo not drawn) [JFY-058, (5α,6α)-7,8-didehydro-4,5-epoxy-17-(N,N′-bisphenylcarboxamidino)morphinan, 3,6-diol], the “% Inhibition” value with ICR mice [3] (1 mg/kg, Table 5) was found to be 17%; with ICR mice [3] (2 mg/kg, Table 5), 33%; with ICR mice [3] (4 mg/kg, Table 5) it was 39%; in the series with ICR mice [3] (8 mg/kg, Table 5) it was 39%; in the series on ICR mice [3] (16 mg/kg, Table 5), 78%; in the series on ICR mice [3] (32 mg/kg, Table 5), 100%. The “% Inhibition” value with ICR mice [3] (64 mg/kg, Table 5) is recorded as 100%; with ICR mice [3] (128 mg/kg, Table 5) it was 100%. Besides, the “Number of Writhings Average” value was found to be 15 in the series on ICR mice [3] (1 mg/kg, Table 5); 12 in the series on ICR mice [3] (2 mg/kg, Table 5); 11 in the series with ICR mice [3] (4 mg/kg, Table 5); 11 in the series on ICR mice [3] (8 mg/kg, Table 5); 4 with ICR mice [3] (16 mg/kg, Table 5); 0 with ICR mice [3] (32 mg/kg, Table 5). Further, the “Number of Writhings Average” value is recorded as 0 in the series on ICR mice [3] (64 mg/kg, Table 5) and 0 with ICR mice [3] (128 mg/kg, Table 5). In addition, the “Number of Writhings Individual” value with ICR mice [3] (1 mg/kg, Table 5) was 17 and 19 and 10; with ICR mice [3] (2 mg/kg, Table 5) it was 15 and 13 and 8; in the series with ICR mice [3] (4 mg/kg, Table 5) it was 15 and 6 and 11; with ICR mice [3] (8 mg/kg, Table 5), 3 and 15 and 14; with ICR mice [3] (16 mg/kg, Table 5), 2 and 1 and 8; in the series with ICR mice [3] (32 mg/kg, Table 5), 0 (2×) and 1. Further, the “Number of Writhings Individual” value is 0 in the series on ICR mice [3] (64 mg/kg, Table 5) and 0 in the series on ICR mice [3] (128 mg/kg, Table 5). Also, the “analgesic activity (≧50% reduction in writhes)” value in the series on ICR mice [3] (doses of 128, 64, 32 and 16 mg/kg) is reported as “significant activity”. Besides, in the series on ICR mice [4] (IP, 40 minute observation period after administration, Example 18), the Straub tail behaviour entry is on record as “None of the test animals exhibited Straub tail behaviour”.
